Laboratory results published in patent publication US10450549B2, “Aryloxyphenoxypropionate tolerance in turfrgass species and use of AAD1 as a selectable marker” (Dow AgroSciences, LLC, priority 2004, dated 2019).
“And” between values parts separate entries of the source, which are not always exact repeats. Identical values can stand only once.

Tests used:
[1] = molecular target: T1, AAD1 (v1) (Sphingobium herbicidovorans, UniProt Q8KSC8); assay: Colorimetric phenol detection assay of AAD1 (v1) activity (purified enzyme or E. coli extract); type: biochemical; conditions: for rate of product formation relative to 2,4-D / A510: 1 mM; for rate of product formation relative to 2,4-D: 27 μg crude recombinant AAD1 (v1) per assay; for A510 / % 2,4-D: Table 8; for A510: 27 μg crude recombinant AAD1 (v1) extract from E. coli; for % 2,4-D: relative to 2,4-D, crude AAD1 (v1) extract; for A510, AAD1 / A510, AAD1 (10x): substrate 1 mM; for A510, AAD1: 1 μg purified AAD1 (v1) per 0.16 ml assay; for A510, AAD1 (10x): 10 μg purified AAD1 (v1) per 0.16 ml assay
T1 construct: made in house; host or cells: E. coli BL-21 Star (DE3), plasmid pDAB3203
T1 sequence (Q8KSC8 whole entry): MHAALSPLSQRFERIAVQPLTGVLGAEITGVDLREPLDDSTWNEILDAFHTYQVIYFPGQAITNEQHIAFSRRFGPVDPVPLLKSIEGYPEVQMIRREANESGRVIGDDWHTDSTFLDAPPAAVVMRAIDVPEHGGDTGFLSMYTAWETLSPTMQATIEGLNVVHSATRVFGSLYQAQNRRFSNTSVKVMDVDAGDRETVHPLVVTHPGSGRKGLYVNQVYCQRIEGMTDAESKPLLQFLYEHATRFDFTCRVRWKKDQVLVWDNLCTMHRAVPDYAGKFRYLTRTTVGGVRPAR

[2] = tested on: T4 Arabidopsis homozygous for AAD1 (v3) (line AAD1.01.315.076); assay: Foliar-applied auxinic herbicides on homozygous T4 AAD1 (v3) Arabidopsis, % injury 14 DAT; type: in vivo, Arabidopsis thaliana; conditions: AAD1.01.315.076.T4 homozygous AAD1 plants
Procedure: (§1) The ability of AAD1 (v3) to provide resistance to other aryloxyphenoxyalkanoate auxin herbicides in transgenic Arabidopsis was determined by foliar application of various substrates described in Example 6.8. T4 generation Arabidopsis seed, homozygous for AAD1 (v3) (line AAD1.01.315.076) was stratified, and sown into selection trays much like that of Arabidopsis (Example 6.4). A transformed-control line containing PAT and the insect resistance gene Cry1F was planted in a similar manner. Seedlings were transferred to individual 3-inch pots in the greenhouse. All plants were sprayed with the use of a track sprayer set at 187 L/ha. […] All applications were formulated in 200 mM Hepes buffer (pH 7.5). Each treatment was replicated 3-4 times. Plants were evaluated at 3 and 14 days after treatment and are averaged over two experiments.

[3] = tested on: transformed-control line containing PAT and Cry1F; assay: Foliar-applied auxinic herbicides on control (PAT/Cry1F, wildtype) Arabidopsis, % injury 14 DAT; type: in vivo, Arabidopsis thaliana; conditions: PatCry1f - Control
Procedure: as §1

SMILES | A510, AAD1 ([1]; Table 4) | A510, AAD1 (10x) ([1]; Table 4) | A510, AAD1 ([1]; Table 3, 15 min) | A510, AAD1 (10x) ([1]; Table 3, 15 min) | other results
O=C(O)COc1cc(F)c(Cl)cc1Cl [5-F, 2,4-D] |  |  |  |  | rate of product formation relative to 2,4-D [1]: 32%; A510 [1]: 0.056; % 2,4-D [1]: 32%
O=C(O)COc1ccc(Cl)c2cccnc12 [Cloquintocet] | 0 | 0.001 |  |  | activity of purified AAD1 (v1) on substrate ([1]; 1 mM substrate, 1 or 10 μg enzyme): no activity
O=S(=O)([O-])OCCOc1ccc(Cl)cc1Cl.[Na+] [sesone] |  |  | 0.02 | 0.177 | 
Oc1ccc(Cl)cc1Cl [2,4-DCP] |  |  |  |  | Ave % Injury 14DAT ([2]; 50 g ae/ha foliar): 0%; Ave % Injury 14DAT ([2]; 200 g ae/ha foliar): 0%; Ave % Injury 14DAT ([2]; 800 g ae/ha foliar): 0%; Ave % Injury 14DAT ([2]; 3200 g ae/ha foliar): 0%; Ave % Injury 14DAT ([3]; 50 g ae/ha foliar): 0%; Ave % Injury 14DAT ([3]; 200 g ae/ha foliar): 0%; Ave % Injury 14DAT ([3]; 800 g ae/ha foliar): 0%; Ave % Injury 14DAT ([3]; 3200 g ae/ha foliar): 0%
CC(Oc1ccc(Oc2ncc(Cl)cc2Cl)cc1)C(=O)O (racemic) [(R,S)- chlorazifop] | 0.128 | 1.584 |  |  | 
CCC(Oc1ccc(Cl)cc1Cl)C(N)=O (centres unmarked) [compound 192132] |  |  | 0.064 | 0.204 | 
O=C(O)COc1ccc(F)cc1Cl [compound 124988] |  |  | 0.007 | 0.058 | 
CC(Oc1ccc(Oc2ncc(C(F)(F)F)cc2Cl)cc1F)C(=O)O (centres unmarked) [compound 25646] | 0.144 | 1.69 |  |  | 
CC(Oc1ccc(Oc2nc3ccc(Cl)cc3s2)cc1)C(=O)O (racemic) [(R,S)- fenthiaprop] | 0.199 | 1.055 |  |  | 
CC(Oc1cc(F)c(Cl)c(N)c1Cl)C(=O)O (racemic) [(R,S)-3-amino, 5-F-dichlorprop] |  |  |  |  | rate of product formation relative to 2,4-D [1]: 125%; A510 [1]: 0.221; % 2,4-D [1]: 125%
Nc1c(Cl)ccc(OCC(=O)O)c1Cl [compound 11263526] |  |  | 0.004 | 0.069 | 
CC(Oc1ccc(Oc2ncc(Cl)cc2F)cc1)C(=O)O (racemic) [(R,S)- clodinofop] | 0.295 | 1.98 |  |  | 
CC(Oc1ccc(F)cc1Cl)C(=O)O (racemic) [(R,S)-2-chloro, 4-fluorophenoxy-proprionate] |  |  | 0.304 | 2.358 | 
O=C(O)CCCOc1ccc(Cl)cc1Cl [compound 178577] |  |  | 0.003 | 0.021 | 
CC(Oc1ccc(Oc2ccc(C(F)(F)F)cn2)cc1)C(=O)O (racemic) [(R,S)- fluazifop] | 0.427 | 2.17 |  |  | 
CC(C)COC(=O)COc1ccc(Cl)cc1Cl [compound 190252] |  |  | 0.008 | 0.211 | 
CC(Oc1ccc(Cl)c(N)c1Cl)C(=O)O (racemic) [(R,S)-3-aminodichlorpop] |  |  | 0.228 | 2.676 | fold better than 2,4-D as a substrate ([1]; purified AAD1 (v1), Table 3 data, listed as 3-aminodichlorprop): ~7 fold and > 7 fold
